Source: patent US11542259B2, “Compounds for the treatment of kinase-dependent disorders” (Exelixis, Inc., priority 2018, dated 2023)

What was measured:
Assay type in all cases: cell-based
KDR = KDR (Homo sapiens (Human), UniProt P35968); experiment: KDR autophosphorylation ELISA in HUVEC cells; settings: cellular, VEGF165 stimulated
Procedure, shortened: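 Compound pretreatment (1 h, 0.3% DMSO) of serum-starved HUVEC preceded a 5 min pulse of 100 ng/mL VEGF165, after which cells were lysed. Phospho-KDR was quantified by ELISA relative to stimulated and unstimulated controls.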

Mer = Mer (Homo sapiens (Human), UniProt Q12866); experiment: Mer autophosphorylation ELISA in transient transfected 293A cells; settings: cellular, MERTK transfected 293A cells
Procedure, shortened: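 293A cells transiently transfected with human MERTK DNA, then treated 1 h with 8-point compound dilutions in serum-free medium (0.3% DMSO). Phospho-Mer in lysates quantified by sandwich ELISA against phospho-Mer standard; normalised to DMSO (100%) and reference inhibitor (0%), IC50 from 4-parameter logistic fit.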

AXL = AXL (Homo sapiens (Human), UniProt P30530); experiment: AXL autophosphorylation ELISA in A-172 cells; settings: cellular, Gas6 stimulated
Procedure, shortened: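 Serum-starved (24 h) A-172 glioblastoma cells pretreated 1 h with compounds (8-point curve, 0.3% DMSO), then stimulated 15 min with 1 μg/mL Gas6. Lysate phospho-AXL measured by sandwich ELISA against a phospho-AXL standard; IC50 from 4-parameter logistic fit between DMSO and reference-inhibitor controls.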

Sequence of AXL (P30530 26-894): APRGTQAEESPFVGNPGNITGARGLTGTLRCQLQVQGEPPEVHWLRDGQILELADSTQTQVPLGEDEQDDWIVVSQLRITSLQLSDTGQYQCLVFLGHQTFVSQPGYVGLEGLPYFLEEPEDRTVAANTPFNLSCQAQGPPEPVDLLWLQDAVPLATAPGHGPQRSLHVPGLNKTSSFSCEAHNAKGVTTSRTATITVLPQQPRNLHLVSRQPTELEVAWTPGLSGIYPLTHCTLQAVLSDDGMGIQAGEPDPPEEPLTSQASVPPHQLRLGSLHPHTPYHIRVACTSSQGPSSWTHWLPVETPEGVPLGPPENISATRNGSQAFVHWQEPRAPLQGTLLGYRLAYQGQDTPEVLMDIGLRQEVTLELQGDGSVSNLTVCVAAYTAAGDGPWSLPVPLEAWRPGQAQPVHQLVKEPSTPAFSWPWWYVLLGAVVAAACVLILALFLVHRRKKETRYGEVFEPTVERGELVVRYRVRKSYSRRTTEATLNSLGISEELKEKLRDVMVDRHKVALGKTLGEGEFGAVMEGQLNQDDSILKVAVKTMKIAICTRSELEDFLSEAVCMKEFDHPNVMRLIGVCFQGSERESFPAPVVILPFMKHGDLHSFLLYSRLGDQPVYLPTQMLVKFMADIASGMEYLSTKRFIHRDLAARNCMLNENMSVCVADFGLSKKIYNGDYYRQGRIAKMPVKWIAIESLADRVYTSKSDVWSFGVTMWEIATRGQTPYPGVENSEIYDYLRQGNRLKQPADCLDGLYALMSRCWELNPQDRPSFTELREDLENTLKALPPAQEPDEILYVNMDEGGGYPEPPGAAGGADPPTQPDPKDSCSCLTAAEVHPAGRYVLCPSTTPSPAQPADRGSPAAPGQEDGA
Sequence of KDR (P35968 20-1356): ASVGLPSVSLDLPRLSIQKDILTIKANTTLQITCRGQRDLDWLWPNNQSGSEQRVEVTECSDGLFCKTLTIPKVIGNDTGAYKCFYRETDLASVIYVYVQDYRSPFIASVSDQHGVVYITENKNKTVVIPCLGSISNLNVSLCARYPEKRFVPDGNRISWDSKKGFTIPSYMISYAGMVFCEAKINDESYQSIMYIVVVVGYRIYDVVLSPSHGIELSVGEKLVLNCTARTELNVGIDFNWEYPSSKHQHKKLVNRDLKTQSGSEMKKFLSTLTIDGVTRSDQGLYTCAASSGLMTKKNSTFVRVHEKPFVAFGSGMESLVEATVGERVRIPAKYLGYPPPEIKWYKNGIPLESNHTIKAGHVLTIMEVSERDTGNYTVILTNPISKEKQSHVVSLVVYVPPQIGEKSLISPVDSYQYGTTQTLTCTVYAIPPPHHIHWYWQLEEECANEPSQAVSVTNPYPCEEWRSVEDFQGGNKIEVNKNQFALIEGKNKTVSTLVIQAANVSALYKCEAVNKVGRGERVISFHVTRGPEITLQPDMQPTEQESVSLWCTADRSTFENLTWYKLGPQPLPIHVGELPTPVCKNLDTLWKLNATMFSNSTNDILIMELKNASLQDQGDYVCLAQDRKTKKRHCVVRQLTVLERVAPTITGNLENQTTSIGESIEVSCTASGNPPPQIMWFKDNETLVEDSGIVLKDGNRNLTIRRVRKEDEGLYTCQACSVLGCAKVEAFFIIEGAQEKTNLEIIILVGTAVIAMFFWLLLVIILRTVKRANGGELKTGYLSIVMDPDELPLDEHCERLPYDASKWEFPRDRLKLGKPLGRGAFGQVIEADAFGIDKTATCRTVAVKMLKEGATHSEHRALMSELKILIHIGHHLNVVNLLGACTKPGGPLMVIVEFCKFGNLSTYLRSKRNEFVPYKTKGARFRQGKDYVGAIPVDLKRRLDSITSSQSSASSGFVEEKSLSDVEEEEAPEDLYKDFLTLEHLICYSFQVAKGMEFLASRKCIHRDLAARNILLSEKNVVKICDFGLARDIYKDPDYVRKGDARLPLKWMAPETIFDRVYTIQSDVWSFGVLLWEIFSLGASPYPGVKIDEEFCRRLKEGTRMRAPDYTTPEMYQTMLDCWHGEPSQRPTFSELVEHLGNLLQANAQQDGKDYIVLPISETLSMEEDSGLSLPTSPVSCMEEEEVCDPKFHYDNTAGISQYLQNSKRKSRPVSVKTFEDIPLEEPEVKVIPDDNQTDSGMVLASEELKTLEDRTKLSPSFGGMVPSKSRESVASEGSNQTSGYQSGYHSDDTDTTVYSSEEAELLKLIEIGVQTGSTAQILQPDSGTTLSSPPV
Sequence of Mer (Q12866 21-999): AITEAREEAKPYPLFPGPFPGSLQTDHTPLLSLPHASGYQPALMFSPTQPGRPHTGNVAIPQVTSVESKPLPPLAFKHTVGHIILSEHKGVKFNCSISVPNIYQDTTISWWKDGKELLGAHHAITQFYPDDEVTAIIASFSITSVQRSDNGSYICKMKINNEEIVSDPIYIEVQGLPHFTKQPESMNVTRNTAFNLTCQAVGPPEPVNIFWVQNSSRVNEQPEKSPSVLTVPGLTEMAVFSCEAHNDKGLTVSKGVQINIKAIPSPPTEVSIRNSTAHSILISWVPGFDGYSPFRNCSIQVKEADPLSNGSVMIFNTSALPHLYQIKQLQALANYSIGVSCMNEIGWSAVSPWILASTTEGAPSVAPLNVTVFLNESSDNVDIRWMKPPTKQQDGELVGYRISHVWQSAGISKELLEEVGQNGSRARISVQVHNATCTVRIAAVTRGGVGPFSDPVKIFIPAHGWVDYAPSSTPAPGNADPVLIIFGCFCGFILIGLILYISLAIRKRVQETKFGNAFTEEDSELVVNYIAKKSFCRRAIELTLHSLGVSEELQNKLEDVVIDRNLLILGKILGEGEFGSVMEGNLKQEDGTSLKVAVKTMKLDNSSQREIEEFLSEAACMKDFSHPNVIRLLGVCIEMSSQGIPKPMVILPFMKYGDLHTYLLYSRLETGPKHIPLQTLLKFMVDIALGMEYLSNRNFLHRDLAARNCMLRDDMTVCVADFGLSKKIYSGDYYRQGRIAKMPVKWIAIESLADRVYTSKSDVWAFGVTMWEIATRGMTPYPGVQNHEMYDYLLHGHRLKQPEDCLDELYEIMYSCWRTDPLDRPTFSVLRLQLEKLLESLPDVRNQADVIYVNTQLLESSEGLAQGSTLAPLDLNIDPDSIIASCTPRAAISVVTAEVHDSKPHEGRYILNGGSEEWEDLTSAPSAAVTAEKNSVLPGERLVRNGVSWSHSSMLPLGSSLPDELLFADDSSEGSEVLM

| IC50 (KDR) | IC50 (Mer) | IC50 (AXL) | SMILES |
| --- | --- | --- | --- |
| ≤ 10 nM | ≤ 10 nM | ≤ 10 nM | COc1cc2nccc(Oc3ccc(NC(=O)C4(C(=O)Nc5ccc(F)cc5)CC4)cc3)c2cc1C(N)=O [Compound 7, 1-N-[4-(6-carbamoyl-7-methoxyquinolin-4-yl)oxyphenyl]-1-N′-(4-fluorophenyl)cyclopropane-1,1-dicarboxamide] |
| ≤ 10 nM | ≤ 10 nM | ≤ 10 nM | CNC(=O)c1cc2c(Oc3ccc(NC(=O)C4(C(=O)Nc5ccc(F)cc5)CC4)cc3)ccnc2cc1OC [Compound 8, 1-N′-(4-fluorophenyl)-1-N-[4-[7-methoxy-6-(methylcarbamoyl)quinolin-4-yl]oxyphenyl]cyclopropane-1,1-dicarboxamide] |
| ≤ 10 nM | ≤ 10 nM | ≤ 10 nM | CCNC(=O)c1cc2c(Oc3ccc(NC(=O)C4(C(=O)Nc5ccc(F)cc5)CC4)cc3)ccnc2cc1OC [Compound 9, 1-N-[4-[6-(ethylcarbamoyl)-7-methoxyquinolin-4-yl]oxyphenyl]-1-N′-(4-fluorophenyl)cyclopropane-1,1-dicarboxamide] |
| ≤ 10 nM | 10 to 100 nM | 10 to 100 nM | CONC(=O)c1cc2c(Oc3ccc(NC(=O)C4(C(=O)Nc5ccc(F)cc5)CC4)cc3)ccnc2cc1OC [Compound 17, 1-N′-(4-fluorophenyl)-1-N-[4-[7-methoxy-6-(methoxycarbamoyl)quinolin-4-yl]oxyphenyl]cyclopropane-1,1-dicarboxamide] |
| ≤ 10 nM | ≤ 10 nM | ≤ 10 nM | COc1cc2nccc(Oc3ccc(NC(=O)C4(C(=O)Nc5ccc(F)cc5)CC4)cc3)c2cc1-c1ncco1 [Compound 45, 1-N′-(4-fluorophenyl)-1-N-[4-[7-methoxy-6-(1,3-oxazol-2-yl)quinolin-4-yl]oxyphenyl]cyclopropane-1,1-dicarboxamide] |
| ≤ 10 nM | 10 to 100 nM | ≤ 10 nM | NC(=O)c1cc2c(Oc3ccc(NC(=O)C4(C(=O)Nc5ccc(F)cc5)CC4)cc3)ccnc2cc1OCCCN1CCOCC1 [Compound 98, 1-N-[4-[6-carbamoyl-7-(3-morpholin-4-ylpropoxy)quinolin-4-yl]oxyphenyl]-1-N′-(4-fluorophenyl)cyclopropane-1,1-dicarboxamide] |
| ≤ 10 nM | ≤ 10 nM | ≤ 10 nM | COc1cc2nccc(Oc3ccc(NC(=O)C4(C(=O)Nc5ccc(F)cc5)CC4)cc3Cl)c2cc1C(N)=O [Compound 132, 1-N′-[4-(6-carbamoyl-7-methoxyquinolin-4-yl)oxy-3-chlorophenyl]-1-N-(4-fluorophenyl)cyclopropane-1,1-dicarboxamide] |
| ≤ 10 nM | ≤ 10 nM | ≤ 10 nM | COc1cc2nccc(Oc3ccc(NC(=O)C4(C(=O)Nc5ccc(F)cc5)CC4)cc3F)c2cc1C(N)=O [Compound 133, 1-N′-[4-(6-carbamoyl-7-methoxyquinolin-4-yl)oxy-3-fluorophenyl]-1-N-(4-fluorophenyl)cyclopropane-1,1-dicarboxamide] |
| ≤ 10 nM | ≤ 10 nM | ≤ 10 nM | CNC(=O)c1cc2c(Oc3ccc(NC(=O)C4(C(=O)Nc5ccc(F)cc5)CC4)cc3Cl)ccnc2cc1OC [Compound 134, 1-N′-[3-chloro-4-[7-methoxy-6-(methylcarbamoyl)quinolin-4-yl]oxyphenyl]-1-N-(4-fluorophenyl)cyclopropane-1,1-dicarboxamide] |
| ≤ 10 nM | ≤ 10 nM | ≤ 10 nM | CNC(=O)c1cc2c(Oc3ccc(NC(=O)C4(C(=O)Nc5ccc(F)cc5)CC4)cc3F)ccnc2cc1OC [Compound 135, 1-N′-[3-fluoro-4-[7-methoxy-6-(methylcarbamoyl)quinolin-4-yl]oxyphenyl]-1-N-(4-fluorophenyl)cyclopropane-1,1-dicarboxamide] |
| 10 to 100 nM | 10 to 100 nM | 10 to 100 nM | Cc1cc2c(Oc3ccc(NC(=O)C4(C(=O)Nc5ccc(F)cc5)CC4)cc3)ccnc2cc1C(N)=O [Compound 142, 1-N-[4-(7-carbamoyl-6-methylquinolin-4-yl)oxyphenyl]-1-N′-(4-fluorophenyl)cyclopropane-1,1-dicarboxamide] |
| 10 to 100 nM | 10 to 100 nM | ≤ 10 nM | NC(=O)c1ccc2c(Oc3ccc(NC(=O)C4(C(=O)Nc5ccc(F)cc5)CC4)cc3)ccnc2c1 [Compound 164, 1-N-[4-(7-carbamoylquinolin-4-yl)oxyphenyl]-1-N′-(4-fluorophenyl)cyclopropane-1,1-dicarboxamide] |
| ≤ 10 nM | 10 to 100 nM | 10 to 100 nM | CNC(=O)c1ccc2c(Oc3ccc(NC(=O)C4(C(=O)Nc5ccc(F)cc5)CC4)cc3)ccnc2c1 [Compound 165, 1-N′-(4-fluorophenyl)-1-N-[4-[7-(methylcarbamoyl)quinolin-4-yl]oxyphenyl]cyclopropane-1,1-dicarboxamide] |
| ≤ 10 nM | ≤ 10 nM | ≤ 10 nM | COc1cc2nccc(Oc3ccc(NC(=O)C4(C(=O)Nc5ccc(F)cc5)CC4)cc3)c2cc1-c1cnn(C)c1 [Compound 182, 1-N′-(4-fluorophenyl)-1-N-[4-[7-methoxy-6-(1-methylpyrazol-4-yl)quinolin-4-yl]oxyphenyl]cyclopropane-1,1-dicarboxamide] |
| ≤ 10 nM | ≤ 10 nM | 10 to 100 nM | COc1cc2nccc(Oc3ccc(NC(=O)C4(C(=O)Nc5ccc(F)cc5)CC4)cc3)c2cc1-c1ccn[nH]1 [Compound 185, 1-N′-(4-fluorophenyl)-1-N-[4-[7-methoxy-6-(1H-pyrazol-5-yl)quinolin-4-yl]oxyphenyl]cyclopropane-1,1-dicarboxamide] |
| ≤ 10 nM | ≤ 10 nM | ≤ 10 nM | COc1cc2nccc(Oc3ccc(NC(=O)C4(C(=O)Nc5ccc(F)cc5)CC4)cc3)c2cc1-c1ncc[nH]1 [Compound 191, 1-N′-(4-Fluorophenyl)-1-N-[4-[6-(1H-imidazol-2-yl)-7-methoxyquinolin-4-yl]oxyphenyl]cyclopropane-1,1-dicarboxamide] |
| ≤ 10 nM | 10 to 100 nM | ≤ 10 nM | COc1cc2nccc(Oc3ccc(NC(=O)C4(C(=O)Nc5ccc(F)cc5)CC4)cc3)c2cc1S(N)(=O)=O [Compound 206, 1-N′-(4-Fluorophenyl)-1-N-[4-(7-methoxy-6-sulfamoylquinolin-4-yl)oxyphenyl]cyclopropane-1,1-dicarboxamide] |
| ≤ 10 nM | ≤ 10 nM | ≤ 10 nM | COc1cc2nccc(Oc3ccc(NC(=O)C4(C(=O)Nc5ccc(F)cc5)CC4)cc3)c2cc1-c1nnco1 [Compound 220, 1-N′-(4-Fluorophenyl)-1-N-[4-[7-methoxy-6-(1,3,4-oxadiazol-2-yl)quinolin-4-yl]oxyphenyl]cyclopropane-1,1-dicarboxamide] |
